Measured values as given in patent US10212956B2, “Compositions and methods of treating edible matter and substrates therefor” (PIMI AGRO CLEANTECH LTD., priority 2010, dated 2019).

How the values were obtained:
mandarin oranges = experiment: Citrus decay during storage at 2° C.; assay type: in vivo; settings: Mandarin Orange
Description: Approximately 1000 mandarin oranges were treated shortly after harvest with compositions comprising performic acid, water, or an Imazalil composition, and then stored at 2° C. After 22 days, the number of rotten fruits, and the percent decay were assessed. A second trial was conducted with ten tons of mandarin oranges treated with a performic acid composition or Imazalil and stored and then stored at 2° C. The study was repeated with Red Grapefruit. The compositions comprising performic acid and the manner of applying the compositions varied throughout the course of the study within the parameters summarized in Table 6.
The compositions were applied to the citrus at room temperature with a fine spray of the performic acid containing composition and then treated either a) with a drain wash of water (either cold or heated to 55° C.) with a 1:9 dilution in tap water of the composition without formic acid, orb) with a drain wash of water (either cold or heated to 55° C.), followed by a fine spray at room temperature with a formulation identical to the performic acid formulation but without formic acid. Thus, the methods of applying in this study were: • a. Application of the performic acid containing composition at room temperature with fine spray, then treatment with a drain wash of cold water, and then a fine spray at room temperature with a formula without formic acid (i.e. without the performic acid source) • b. Application of the performic acid containing composition at room temperature with fine spray, then treatment with a drain wash of heated water (to about 55° C.), and then a fine spray at room temperature with a formula without formic acid • c. Application of the performic acid containing composition at room temperature with fine spray and then treatment with a drain wash of cold water that contained the formula at a diluted state at a ratio of 1:9 but without formic acid • d. Application of the performic acid containing composition at room temperature with fine spray and then treatment with a drain wash of heated water (to about 55° C.) that contained the formula at a diluted state at a ratio of 1:9 but without formic acid
All treatments were conducted at a total rate of 5-20 liter of formula per ton of different Citrus varieties.

[1] = test system: Aspergillus niger (ATCC 16404); experiment: BS EN 1650:1998 quantitative suspension test, fungicidal activity; assay type: cell-based; settings: 300 ppm; same test conditions (1 minute, 20° C., dirty conditions)
Description: (§1) This is a quantitative suspension test to evaluate the activity of chemical disinfectants and antiseptics used in food, industrial, domestic and institutional areas against fungi, yeasts and molds. The same composition tested in Example 22 was tested in this case as well.
(§2) As is known in the art, EN 1650 specifies a test method and the minimum requirements for anti-fungal, anti-yeast and anti-mold activity of chemical disinfectant and antiseptic products that form a homogeneous, physically stable preparation in hard water and that are used in food, industrial, domestic and institutional areas, excluding areas and situations where disinfection is medically indicated and excluding products used on living tissues except those for hand hygiene in the above-considered areas. […]
(§3) A test suspension of yeast cells and/or mold spores in a solution of interfering substance (bovine albumin, 3 g/l) was added to a prepared sample of the product under test diluted in hard water. […] (If a suitable neutralizer could be found, membrane filtration was used.) The number of surviving fungi, yeast cells or mold spores in each sample was determined and the reduction in viable counts was calculated. […]

[2] = test system: Penecillium w.t. (wild type); experiment: as above; assay type: cell-based; settings: 300 ppm; same test conditions (1 minute, 20° C., dirty conditions)
Description: as §1, §2, §3

Structure (SMILES) | % Decay (mandarin oranges; 22 days after treatment) [%] | No. Rotten Fruits (mandarin oranges; 22 days after treatment) | % Decay (mandarin oranges; 46 days after treatment) [%] | No. Rotten Fruits (mandarin oranges; 46 days after treatment) | compliance with EN 1650 [1] | compliance with EN 1650 [2]
C=CCOC(Cn1ccnc1)c1ccc(Cl)cc1Cl (stereo not drawn) [Imazalil] | 6.8 | 59 | 1.75 | 125 | – | –
CC(=O)OO [peracetic acid] | – | – | – | – | did not meet the standard | did not meet the standard
